According to ChEMBL document CHEMBL4673291, “Synthesis and antiproliferative evaluation of novel 8-cyclopentyl-7,8-dihydropteridin-6(5H)-one derivatives as potential anticancer agents” (Bioorg Med Chem Lett, 2021):

Key:
[1] = system: HEK293; assay: Cytotoxicity against HEK293 cells assessed as inhibition of cell proliferation measured after 48 hrs by MTT assay; type: cell-based; settings: Homo sapiens, HEK293, 48 h
[2] = system: HT-29; assay: Antiproliferative activity against human HT-29 cells assessed as inhibition of cell proliferation measured after 48 hrs by MTT assay; type: functional, cell-based; settings: HT-29, 48 h
[3] = system: HeLa; assay: Antiproliferative activity against human HeLa cells assessed as inhibition of cell proliferation measured after 48 hrs by MTT assay; type: functional, cell-based
[4] = system: MDA-MB-231; assay: Antiproliferative activity against human MDA-MB-231 cells assessed as inhibition of cell proliferation measured after 48 hrs by MTT assay; type: functional, cell-based; settings: MDA-MB-231, 48 h
[5] = system: HCT-116; assay: Antiproliferative activity against human HCT-116 cells assessed as inhibition of cell proliferation measured after 48 hrs by MTT assay; type: functional, cell-based; settings: HCT-116, 48 h
[6] = system: HeLa; assay: Cell cycle arrest in human HeLa cells assessed as accumulation at G2/M phase at 12 uM measured after 24 hrs by flow cytometry analysis (reference value: 15.22 %); type: functional
[7] = system: HeLa; assay: Cell cycle arrest in human HeLa cells assessed as accumulation at G2/M phase measured after 24 hrs by flow cytometry analysis; type: functional, cell-based; settings: dose 3-12 µM
[8] = system: HeLa; assay: Cell cycle arrest in human HeLa cells assessed as accumulation at S phase at 12 uM measured after 24 hrs by flow cytometry analysis (reference value: 17.44 %); type: functional
[9] = system: HeLa; assay: Cell cycle arrest in human HeLa cells assessed as accumulation at G1/G0 phase at 12 uM measured after 24 hrs by flow cytometry analysis (reference value: 67.34 %); type: functional
[10] = system: HeLa; assay: Cell cycle arrest in human HeLa cells assessed as accumulation at S phase at 6 uM measured after 24 hrs by flow cytometry analysis (reference value: 17.44 %); type: functional
[11] = system: HeLa; assay: Cell cycle arrest in human HeLa cells assessed as accumulation at G2/M phase at 6 uM measured after 24 hrs by flow cytometry analysis (reference value: 15.22 %); type: functional
[12] = system: HeLa; assay: Cell cycle arrest in human HeLa cells assessed as accumulation at G1/G0 phase at 6 uM measured after 24 hrs by flow cytometry analysis (reference value: 67.34 %); type: functional
[13] = system: HeLa; assay: Cell cycle arrest in human HeLa cells assessed as accumulation at G2/M phase at 3 uM measured after 24 hrs by flow cytometry analysis (reference value: 15.22 %); type: functional
[14] = system: HeLa; assay: Cell cycle arrest in human HeLa cells assessed as accumulation at S phase at 3 uM measured after 24 hrs by flow cytometry analysis (reference value: 17.44 %); type: functional
[15] = system: HeLa; assay: Cell cycle arrest in human HeLa cells assessed as accumulation at G1/G0 phase at 3 uM measured after 24 hrs by flow cytometry analysis (reference value: 67.34 %); type: functional

| IC50 [2] [µM] | IC50 [3] [µM] | IC50 [4] [µM] | IC50 [5] [µM] | SMILES | IC50 [1] [µM] | further results |
| --- | --- | --- | --- | --- | --- | --- |
| > 30 | > 30 | > 30 | 5.47 | CCN1C(=O)CN(C2CCCC2)c2nc(Nc3ccc(N4CCCCC4)cc3)ncc21 | > 30 |  |
| 11.3 | > 30 | > 30 | > 30 | CC1CCN(c2ccc(Nc3ncc4c(n3)N(C3CCCC3)CC(=O)N4C)nc2)CC1 |  |  |
| 11.1 | 13.1 | 23.7 | 9.73 | CN1CCN(c2ccc(Nc3ncc4c(n3)N(C3CCCC3)CC(=O)N4C)nc2)CC1 |  |  |
| 26.5 | > 30 | > 30 | > 30 | CN1CCN(c2ccc(Nc3ncc4c(n3)N(C3CCCC3)CC(=O)N4)nc2)CC1 |  |  |
| 3.56 | 13.3 | 6.21 | 7.11 | CC(=O)c1c(C)c2cnc(Nc3ccc(N4CCNCC4)cn3)nc2n(C2CCCC2)c1=O [PALBOCICLIB] |  |  |
|  |  | > 30 | > 30 | COc1ccc(Nc2ncc3c(n2)N(C2CCCC2)CC(=O)N3)cc1 |  |  |
| 22.8 | 26 | 25.1 | 9.5 | O=C1CN(C2CCCC2)c2nc(Nc3ccc(N4CCOCC4)cc3)ncc2N1 | > 30 |  |
| 22 | > 30 | > 30 | 25.3 | O=C1CN(C2CCCC2)c2nc(Nc3ccc(N4CCOCC4)cn3)ncc2N1 |  |  |
| > 30 | > 30 | > 30 | 19.1 | CCN1C(=O)CN(C2CCCC2)c2nc(Nc3ccc(N4CCC(C)CC4)cn3)ncc21 |  |  |
| > 30 | > 30 | > 30 | > 30 | O=C1CN(C2CCCC2)c2nc(Nc3ccc(N4CCNCC4)cn3)ncc2N1 |  |  |
| 5.22 | 21.3 | 26.1 | 12.2 | CN1CCN(c2ccc(Nc3ncc4c(n3)N(C3CCCC3)CC(=O)N4)cc2)CC1 | > 30 |  |
| > 30 | 20.7 |  | 25.4 | O=C1CN(Cc2ccccc2)c2nc(NCCc3ccccc3)ncc2N1 | > 30 |  |

Second part, the compound before the results:

| SMILES | IC50 [2] [µM] | IC50 [3] [µM] | IC50 [4] [µM] | IC50 [5] [µM] | IC50 [1] [µM] | further results |
| --- | --- | --- | --- | --- | --- | --- |
| CCN1C(=O)CN(C2CCCC2)c2nc(Nc3ccc(N4CCN(C)CC4)cn3)ncc21 | 7.84 | 29.1 | 24.1 | 16.4 | > 30 |  |
| CN1C(=O)CN(C2CCCC2)c2nc(Nc3ccc(N4CCCCC4)cc3)ncc21 | 9.86 | 16.9 | 21.2 | 6.1 | 25.3 |  |
| CN1C(=O)CN(C2CCCC2)c2nc(Nc3ccc(N4CCOCC4)cc3)ncc21 | 20.1 | > 30 | > 30 | > 30 |  |  |
| O=C1CN(C2CCCC2)c2nc(Nc3ccc(N4CCCCC4)cc3)ncc2N1 | 5.54 | > 30 | 25 | 4.44 | 25.1 |  |
| CC1CCN(c2ccc(Nc3ncc4c(n3)N(C3CCCC3)CC(=O)N4)cc2)CC1 | 5.04 | > 30 | 22.7 | 8.43 |  |  |
| CN1CCN(c2ccc(Nc3ncc4c(n3)N(C3CCCC3)CC(=O)N4C)cc2)CC1 | 7.56 | 6.75 | 10.3 | 3.29 | 12.4 | Activity [6]: 88.97%; Activity [7]: Dose-dependent effect; Activity [8]: 0%; Activity [9]: 11.03%; Activity [10]: 3.9%; Activity [11]: 48.98%; Activity [12]: 47.11%; Activity [13]: 20.97%; Activity [14]: 14.6%; Activity [15]: 64.43% |
| CN1C(=O)CN(C2CCCC2)c2nc(Nc3ccc(N4CCOCC4)cn3)ncc21 | 28.4 | > 30 | > 30 | 23.6 |  |  |
| COc1ccc(Nc2ncc3c(n2)N(C2CCCC2)CC(=O)N3C)cc1 |  |  | > 30 | 12.3 |  |  |
| CCN1C(=O)CN(C2CCCC2)c2nc(Nc3ccc(N4CCC(C)CC4)cc3)ncc21 | 24.4 | > 30 | > 30 | 5.4 | > 30 |  |
| O=C1CN(C2CCCC2)c2nc(Nc3ccc(N4CCCCC4)cn3)ncc2N1 | 21.1 | > 30 | > 30 | > 30 |  |  |
| CC1CCN(c2ccc(Nc3ncc4c(n3)N(C3CCCC3)CC(=O)N4)nc2)CC1 | > 30 | > 30 | > 30 | > 30 |  |  |
| CCN1C(=O)CN(C2CCCC2)c2nc(Nc3ccc(N4CCCCC4)cn3)ncc21 | 22 | 17.6 | 28.2 | 14.5 | > 30 |  |
| CCN1C(=O)CN(C2CCCC2)c2nc(Nc3ccc(N4CCOCC4)cc3)ncc21 | > 30 | > 30 | > 30 | 9.05 |  |  |
| CC1CCN(c2ccc(Nc3ncc4c(n3)N(C3CCCC3)CC(=O)N4C)cc2)CC1 | > 30 | > 30 | > 30 | 25.3 |  |  |
| CCN1C(=O)CN(C2CCCC2)c2nc(Nc3ccc(N4CCOCC4)cn3)ncc21 | 27.6 | > 30 | > 30 | > 30 |  |  |
| CCN1C(=O)CN(C2CCCC2)c2nc(Nc3ccc(OC)cc3)ncc21 |  |  | > 30 | 11 |  |  |
| CCN1C(=O)CN(C2CCCC2)c2nc(Nc3ccc(N4CCN(C)CC4)cc3)ncc21 | 10.3 | 28.3 | 26.2 | 7.96 | > 30 |  |
| CN1C(=O)CN(C2CCCC2)c2nc(Nc3ccc(N4CCCCC4)cn3)ncc21 | 12.5 | > 30 | 29.3 | 3.89 | > 30 |  |
